According to patent publication US11098033B2, “Ku inhibitors and their use” (INDIANA UNIVERSITY RESEARCH AND TECHNOLOGY CORPORATION, priority 2016, dated 2021):
Several values for one entry are separate records, joined by “and”; a condition that tells them apart may be missing. Equal values may be shown once. Read-outs that look alike come from different tables or passages of the source.

Key:
[1] = system: NHEJ activity in H460 cells; experiment: Host cell reactivation assay of NHEJ mediated re-circularization of a linearized GFP plasmid; type: cell-based
Source text: Disruption of Ku-DNA binding should result in inhibition of NHEJ activity, and to test this inhibition we will employ a host cell reactivation assay. This assay utilizes a linearized plasmid encoding a GFP gene that is transfected into the cell and expressed upon NHEJ mediated re-circularization of the plasmid (Sears, CA., 2012 and Woods, D., 2015). Co-transfection of a circular RFP plasmid accounts for differences in transfection efficiency, and NHEJ mediated repair of the GFP plasmid can be quantified by assessing the ratio of green: red cells. This assay will be used to assess the Ku inhibitor compounds in H460 and HEK-293 cells, and the data obtained from these experiments will allow us to determine the sensitivity of the chemical compounds and effect of Ku inhibition on NHEJ activity. As this is a cellular assay, we will also utilize this assay to do a series of time course experiments to determine the optimal time to deliver the inhibitor to cells in order to achieve maximum inhibition of NHEJ activity.

[2] = biological target: T1, Recombinant human Ku heterodimer (Homo sapiens, UniProt P12956+P13010); experiment: Ku-DNA binding assay; conditions: several values in a cell = separate determinations, read-out: IC50
T1 construct: made in house; host or cells: insect cells infected with recombinant baculovirus
T1 sequence (P12956 whole entry): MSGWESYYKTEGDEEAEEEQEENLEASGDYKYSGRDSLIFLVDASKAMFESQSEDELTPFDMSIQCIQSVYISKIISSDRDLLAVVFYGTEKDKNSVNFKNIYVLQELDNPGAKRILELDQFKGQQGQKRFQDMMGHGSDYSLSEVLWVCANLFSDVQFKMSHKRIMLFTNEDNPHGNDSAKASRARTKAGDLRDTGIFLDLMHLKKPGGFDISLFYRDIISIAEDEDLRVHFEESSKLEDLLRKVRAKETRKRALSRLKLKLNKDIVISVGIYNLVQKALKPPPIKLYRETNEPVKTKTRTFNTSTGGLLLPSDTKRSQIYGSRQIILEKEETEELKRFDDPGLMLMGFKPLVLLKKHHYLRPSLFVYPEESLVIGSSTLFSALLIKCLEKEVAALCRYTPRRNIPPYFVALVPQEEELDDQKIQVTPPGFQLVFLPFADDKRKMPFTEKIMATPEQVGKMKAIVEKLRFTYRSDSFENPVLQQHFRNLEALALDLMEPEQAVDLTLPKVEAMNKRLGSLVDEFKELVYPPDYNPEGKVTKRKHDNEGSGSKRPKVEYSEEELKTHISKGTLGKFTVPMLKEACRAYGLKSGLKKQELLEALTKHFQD
T1 sequence (P13010 whole entry): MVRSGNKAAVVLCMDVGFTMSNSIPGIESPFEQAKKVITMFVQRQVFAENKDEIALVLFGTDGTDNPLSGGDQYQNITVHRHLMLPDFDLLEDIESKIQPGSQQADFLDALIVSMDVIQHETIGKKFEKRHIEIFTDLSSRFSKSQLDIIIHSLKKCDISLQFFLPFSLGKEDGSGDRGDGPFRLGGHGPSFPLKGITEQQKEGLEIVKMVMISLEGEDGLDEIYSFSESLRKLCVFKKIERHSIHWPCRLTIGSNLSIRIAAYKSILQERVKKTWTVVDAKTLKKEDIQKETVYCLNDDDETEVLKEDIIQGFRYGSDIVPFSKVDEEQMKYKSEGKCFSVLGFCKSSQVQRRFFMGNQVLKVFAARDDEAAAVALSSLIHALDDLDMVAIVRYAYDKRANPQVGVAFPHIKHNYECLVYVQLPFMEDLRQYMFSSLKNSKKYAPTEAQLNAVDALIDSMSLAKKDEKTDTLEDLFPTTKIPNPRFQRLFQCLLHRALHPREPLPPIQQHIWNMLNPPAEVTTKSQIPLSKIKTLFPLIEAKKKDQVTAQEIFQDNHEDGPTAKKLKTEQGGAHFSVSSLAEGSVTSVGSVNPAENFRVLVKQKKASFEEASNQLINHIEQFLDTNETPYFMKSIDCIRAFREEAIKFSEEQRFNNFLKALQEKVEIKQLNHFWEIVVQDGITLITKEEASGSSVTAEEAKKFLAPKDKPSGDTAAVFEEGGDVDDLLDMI
Source text: Ku is a DNA end-binding protein that is essential for the repair of DNA double strand breaks via the NHEJ pathway. The mechanism of DNA binding by Ku is via a toroid structure that encircles double-stranded DNA from a terminus.

[3] = system: NHEJ end joining in cell free extract from HEK 293; experiment: In vitro NHEJ (end joining) assay with cell free extract; type: biochemical; conditions: linearized plasmid DNA (3 kbp), HEK 293 cell free extract pre-incubated with inhibitor, ATP; read-out: IC50 of inhibition of end joining
Description: Radiolabeled linearized DNA was incubated with whole cell extracts with increasing amounts of inhibitor NG-02-132.
A linearized plasmid DNA (3 kbp) is incubated with a cell free extract prepared from a NHEJ competent cell (HEK 293) and ATP. The results presented in FIG. 8 show the substrate alone in lane 1 and the degree of end joining control reactions as evidenced by the formation of plasmid multimers.

[4] = system: H460 non-small cell lung cancer cells, EMX1 locus; experiment: Crispr/Cas9 mediated gene insertion at the EMX1 locus; type: cell-based
Source text: To assess the effect of Ku inhibitors on genome engineering efficiency we designed an assay to quantify the recombination efficiency of a Crispr/Cas9 mediated gene insertion event. A donor insert of 2.2 kbp encoding puromycin resistance and a GFP gene was flanked by 800 bp homology arms directing the insert to the EMX1 locus. A guide RNA directing the Cas9 nuclease to the EMX1 gene was purchased and co-transfected with the donor construct and Cas9 expressing plasmid in H460 non-small cell lung cancer cells that were either treated with vehicle or 20 uM 205. 24 hours later, cells were placed under selection with puromycin for 5 days and plated in 96-well plates for single cell cloning. Clones were expanded, genomic DNA isolated and location specific PCR analysis was performed to assess accurate gene insertion at the EMX1 locus.

[5] = Table 2, synthesized derivatives
[6] = Table 1, purchased second generation inhibitors

IC50 [2, 6]	Molecule	further results
4.2 µM and 9 µM	CCOC(=O)c1cc(-c2ccc(/C=C3\C(=O)N(c4cccc(C(=O)O)c4)N=C3C)o2)ccc1Cl [compound 2733, reference compound]	
40 µM and 16 µM	COC(=O)c1cccc(-c2ccc(/C=C3\C(=O)N(c4cccc(C(=O)O)c4)N=C3C(F)(F)F)o2)c1 [compound 2777, reference compound]	
6.2 µM and 5 µM	C=CCOC(=O)c1cccc(-c2ccc(/C=C3\C(=O)N(c4ccc(Cl)c(C(=O)O)c4)N=C3C)o2)c1 [compound 2922, reference compound]	
11 µM and 3.5 µM	CC1=NN(c2cccc(C(=O)O)c2)C(=O)/C1=C\c1ccc(-c2cccc(C(=O)OC(C)C)c2)o1 [compound 3125, reference compound]	
4.3 µM and 8.1 µM	CCOC(=O)c1cccc(-c2ccc(/C=C3\C(=O)N(c4ccc(Cl)c(C(=O)O)c4)N=C3C)o2)c1 [compound 3278, reference compound]	
31 µM and 5.7 µM	CC1=NN(c2ccc(Cl)c(C(=O)O)c2)C(=O)/C1=C\c1ccc(-c2cccc(C(=O)OC(C)C)c2)o1 [compound 3315, reference compound]	
21.8 µM	CC1=NN(c2ccc(Cl)c(C(=O)O)c2)C(=O)/C1=C\c1ccc(-c2ccc3c(c2)C(=O)OC3)o1 [compound 4770, reference compound]	
16.9 µM	C#CCOC(=O)c1cccc(-c2ccc(/C=C3\C(=O)N(c4ccc(Cl)c(C(=O)O)c4)N=C3C)o2)c1 [compound 7026, reference compound]	
32 µM and 16 µM and 40 µM	CC1=NN(c2cccc(C(=O)O)c2)C(=O)/C1=C\c1ccc(-c2ccc3c(c2)C(=O)OC3)o1 [compound 7997, reference compound]	

The remaining lines, values behind:

Molecule	IC50 [2, 6]	further results
COc1cccc(NC(=O)c2cc(-c3ccc(/C=C4\C(=O)N(c5cccc(C(=O)O)c5)N=C4C)o3)ccc2Cl)c1 [NG-01-68/02-140/03-180, (Z)-3-(4-((5-(4-Chloro-3-((3-methoxyphenyl)carbamoyl)phenyl)furan-2-yl)methylene)-3-methyl-5-oxo-4,5-dihydro-1H-pyrazol-1-yl)benzoic acid]		NHEJ catalyzed repair events ([1]; H460 cells preincubated 2 hours prior to transfection of the reporters, measured 48 hours post transfection, without compound 26%, preliminary data): 17%; reduction of NHEJ catalyzed repair events ([1]; H460 cells, 2 hours preincubation, 48 hours post transfection, from 26% to 17%): 35%; IC50 [2, 5]: 6 µM and 15 µM and 4 µM (2×)
COc1cccc(NC(=O)c2cc(-c3ccc(CC4C(=O)N(c5cccc(C(=O)O)c5)N=C4C)o3)ccc2Cl)c1 (stereo not shown) [NG-02-132/ NG-02-149, 3-(4-((5-(4-Chloro-3-((3-methoxyphenyl)carbamoyl)phenyl)furan-2-yl)methyl)-3-methyl-5-oxo-4,5-dihydro-1H-pyrazol-1-yl)benzoic acid]		IC50 [3]: ~15 µM; IC50 [2, 5]: 1 µM (2×) and 4 µM and 6 µM
COc1cccc(NC(=O)c2cc(-c3ccc(CC4C(=O)N(c5cccc(-c6nnn[nH]6)c5)N=C4C)o3)ccc2Cl)c1 (stereo not shown) [NG-03-205, 5-(5-((1-(3-(1H-Tetrazol-5-yl)phenyl)-3-methyl-5-oxo-4,5-dihydro-1H-pyrazol-4-yl)methyl)furan-2-yl)-2-chloro-N-(3-methoxyphenyl)benzamide]		IC50 [2, 5]: 13 µM; Efficiency ([4]; +Inhibitor (20 uM), accurate gene insertion at EMX1 locus, −Inhibitor 14%): 80%; In/Out+ ([4]; +Inhibitor (20 uM), clones positive in location specific PCR, −Inhibitor 4): 4; Clones ([4]; +Inhibitor (20 uM), puromycin selection 5 days, single cell cloning, −Inhibitor 28): 5; increase in precise genome insertion efficiency ([4]; H460 cells, 20 uM, versus vehicle): greater than 6 fold
CC1=NN(c2cccc(C(=O)O)c2)C(=O)/C1=C\c1ccc(-c2cc([N+](=O)[O-])ccc2O)o1 [compound 1564, reference compound]	21 µM and 7 µM	
CC1=NN(c2cccc(C(=O)O)c2)C(=O)/C1=C\c1ccc(-c2ccc(Cl)c(C(=O)OCc3ccccc3Cl)c2)o1 [compound 2249, reference compound]	2.9 µM	
CC1=NN(c2cccc(C(=O)O)c2)C(=O)/C1=C\c1ccc(-c2ccc(C(=O)O)cc2)o1 [compound 2513, reference compound]	150 µM	
CCOC(=O)c1cccc(-c2ccc(/C=C3\C(=O)N(c4cccc(C(=O)O)c4)N=C3C)o2)c1 [compound 2714, reference compound]	9.1 µM	
CCCOC(=O)c1cc(-c2ccc(/C=C3\C(=O)N(c4cccc(C(=O)O)c4)N=C3C)o2)ccc1Cl [compound 2727, reference compound]	7.6 µM and 5.7 µM	
(Z)-2-chloro-5-(54(1-(3-cyanophenyl)-3-methyl-5-oxo-1,5-dihydro-4H-pyrazol-4-ylidene)methyl)furan-2-yl)-N-(3-methoxyphenyl)benzamide [NG-03-193]		IC50 [2, 5]: 25 µM
